Data reported in ChEMBL document CHEMBL3872279, “Design, synthesis and biological evaluation of novel 4-(2-fluorophenoxy)quinoline derivatives as selective c-Met inhibitors” (Bioorg Med Chem, 2017).

Assays:
[1] = Cytotoxicity against human MKN45 cells after 72 hrs by MTT assay; conditions: MKN-45, 72 h
[2] = Cytotoxicity against human A549 cells after 72 hrs by MTT assay; conditions: A549, 72 h
[3] = Cytotoxicity against human HT-29 cells after 72 hrs by MTT assay; conditions: HT-29, 72 h
[4] = target: Epidermal growth factor receptor (Homo sapiens, UniProt P00533); experiment: Inhibition of EGFR (unknown origin)
[5] = target: T1, Receptor-type tyrosine-protein kinase FLT3 (Homo sapiens, UniProt P36888); experiment: Inhibition of FLT3 (unknown origin)
T1 sequence (P36888 whole entry): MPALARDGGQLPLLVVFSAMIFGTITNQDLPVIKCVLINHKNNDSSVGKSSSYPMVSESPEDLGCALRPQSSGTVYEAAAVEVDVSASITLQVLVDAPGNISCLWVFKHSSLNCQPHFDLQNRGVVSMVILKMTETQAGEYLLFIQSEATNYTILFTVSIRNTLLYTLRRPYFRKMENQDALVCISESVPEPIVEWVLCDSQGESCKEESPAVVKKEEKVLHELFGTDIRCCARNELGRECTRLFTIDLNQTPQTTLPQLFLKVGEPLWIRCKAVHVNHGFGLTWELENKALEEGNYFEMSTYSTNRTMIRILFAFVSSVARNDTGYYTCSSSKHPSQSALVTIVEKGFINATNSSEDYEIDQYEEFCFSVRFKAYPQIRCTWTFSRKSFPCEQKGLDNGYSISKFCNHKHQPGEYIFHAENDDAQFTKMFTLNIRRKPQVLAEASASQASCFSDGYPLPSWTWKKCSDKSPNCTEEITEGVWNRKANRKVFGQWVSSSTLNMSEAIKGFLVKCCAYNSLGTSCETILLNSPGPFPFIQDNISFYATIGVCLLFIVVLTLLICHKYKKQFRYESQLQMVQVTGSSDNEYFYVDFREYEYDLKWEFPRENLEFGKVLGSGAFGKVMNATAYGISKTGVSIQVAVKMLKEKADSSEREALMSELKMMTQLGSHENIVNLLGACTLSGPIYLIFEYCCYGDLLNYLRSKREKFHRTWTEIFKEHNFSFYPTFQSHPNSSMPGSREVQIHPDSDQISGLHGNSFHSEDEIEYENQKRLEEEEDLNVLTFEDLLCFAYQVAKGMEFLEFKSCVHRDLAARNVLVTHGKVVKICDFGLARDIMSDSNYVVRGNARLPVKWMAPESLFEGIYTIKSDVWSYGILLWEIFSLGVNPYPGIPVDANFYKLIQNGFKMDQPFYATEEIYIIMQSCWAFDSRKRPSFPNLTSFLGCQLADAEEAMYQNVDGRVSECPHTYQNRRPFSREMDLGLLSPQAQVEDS

[6] = target: Hepatocyte growth factor receptor (Homo sapiens, UniProt P08581); experiment: Inhibition of c-MET (unknown origin) using poly (Glu, Tyr) 4:1 as substrate after 30 mins by HTRF assay
A549 = experiment: Potency index, ratio of foretinib IC50 to compound IC50 for human A549 cells; type: functional
[7] = target: Vascular endothelial growth factor receptor 2 (Homo sapiens, UniProt P35968); experiment: Inhibition of VEGFR-2 (unknown origin)
MKN-45 = experiment: Potency index, ratio of foretinib IC50 to compound IC50 for human MKN45 cells; type: functional
HT-29 = experiment: Potency index, ratio of foretinib IC50 to compound IC50 for human HT-29 cells; type: functional
[8] = target: ALK tyrosine kinase receptor (Homo sapiens, UniProt Q9UM73); experiment: Inhibition of ALK (unknown origin)
[9] = target: Mast/stem cell growth factor receptor Kit (Homo sapiens, UniProt P10721); experiment: Inhibition of c-KIT (unknown origin)
Sequence of Mast/stem cell growth factor receptor Kit (P10721 whole entry): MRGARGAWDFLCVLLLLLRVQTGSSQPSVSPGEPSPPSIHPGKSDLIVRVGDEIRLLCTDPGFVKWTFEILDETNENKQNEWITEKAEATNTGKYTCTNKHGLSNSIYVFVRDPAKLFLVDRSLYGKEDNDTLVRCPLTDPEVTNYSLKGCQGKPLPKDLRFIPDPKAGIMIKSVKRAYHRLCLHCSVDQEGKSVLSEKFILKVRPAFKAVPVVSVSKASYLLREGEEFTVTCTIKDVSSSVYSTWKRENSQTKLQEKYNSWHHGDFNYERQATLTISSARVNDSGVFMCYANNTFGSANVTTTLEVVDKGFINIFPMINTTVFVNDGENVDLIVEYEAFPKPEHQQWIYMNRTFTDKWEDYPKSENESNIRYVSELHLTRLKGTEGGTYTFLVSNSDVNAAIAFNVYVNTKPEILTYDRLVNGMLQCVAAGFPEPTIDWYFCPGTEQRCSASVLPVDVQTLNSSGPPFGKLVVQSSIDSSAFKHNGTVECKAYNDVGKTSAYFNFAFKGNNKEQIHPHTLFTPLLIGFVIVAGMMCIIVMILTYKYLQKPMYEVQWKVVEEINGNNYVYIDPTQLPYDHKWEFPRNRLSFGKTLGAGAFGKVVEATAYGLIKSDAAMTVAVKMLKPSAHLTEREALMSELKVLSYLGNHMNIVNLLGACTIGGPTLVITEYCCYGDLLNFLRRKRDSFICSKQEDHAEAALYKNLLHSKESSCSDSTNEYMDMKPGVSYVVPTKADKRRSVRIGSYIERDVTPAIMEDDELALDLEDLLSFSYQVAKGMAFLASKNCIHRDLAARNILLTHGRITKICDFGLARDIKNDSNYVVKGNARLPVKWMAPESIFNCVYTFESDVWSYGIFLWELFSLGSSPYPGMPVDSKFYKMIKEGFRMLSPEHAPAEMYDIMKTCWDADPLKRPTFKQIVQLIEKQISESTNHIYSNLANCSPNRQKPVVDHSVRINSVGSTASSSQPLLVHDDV

Sequence of ALK tyrosine kinase receptor (Q9UM73 whole entry): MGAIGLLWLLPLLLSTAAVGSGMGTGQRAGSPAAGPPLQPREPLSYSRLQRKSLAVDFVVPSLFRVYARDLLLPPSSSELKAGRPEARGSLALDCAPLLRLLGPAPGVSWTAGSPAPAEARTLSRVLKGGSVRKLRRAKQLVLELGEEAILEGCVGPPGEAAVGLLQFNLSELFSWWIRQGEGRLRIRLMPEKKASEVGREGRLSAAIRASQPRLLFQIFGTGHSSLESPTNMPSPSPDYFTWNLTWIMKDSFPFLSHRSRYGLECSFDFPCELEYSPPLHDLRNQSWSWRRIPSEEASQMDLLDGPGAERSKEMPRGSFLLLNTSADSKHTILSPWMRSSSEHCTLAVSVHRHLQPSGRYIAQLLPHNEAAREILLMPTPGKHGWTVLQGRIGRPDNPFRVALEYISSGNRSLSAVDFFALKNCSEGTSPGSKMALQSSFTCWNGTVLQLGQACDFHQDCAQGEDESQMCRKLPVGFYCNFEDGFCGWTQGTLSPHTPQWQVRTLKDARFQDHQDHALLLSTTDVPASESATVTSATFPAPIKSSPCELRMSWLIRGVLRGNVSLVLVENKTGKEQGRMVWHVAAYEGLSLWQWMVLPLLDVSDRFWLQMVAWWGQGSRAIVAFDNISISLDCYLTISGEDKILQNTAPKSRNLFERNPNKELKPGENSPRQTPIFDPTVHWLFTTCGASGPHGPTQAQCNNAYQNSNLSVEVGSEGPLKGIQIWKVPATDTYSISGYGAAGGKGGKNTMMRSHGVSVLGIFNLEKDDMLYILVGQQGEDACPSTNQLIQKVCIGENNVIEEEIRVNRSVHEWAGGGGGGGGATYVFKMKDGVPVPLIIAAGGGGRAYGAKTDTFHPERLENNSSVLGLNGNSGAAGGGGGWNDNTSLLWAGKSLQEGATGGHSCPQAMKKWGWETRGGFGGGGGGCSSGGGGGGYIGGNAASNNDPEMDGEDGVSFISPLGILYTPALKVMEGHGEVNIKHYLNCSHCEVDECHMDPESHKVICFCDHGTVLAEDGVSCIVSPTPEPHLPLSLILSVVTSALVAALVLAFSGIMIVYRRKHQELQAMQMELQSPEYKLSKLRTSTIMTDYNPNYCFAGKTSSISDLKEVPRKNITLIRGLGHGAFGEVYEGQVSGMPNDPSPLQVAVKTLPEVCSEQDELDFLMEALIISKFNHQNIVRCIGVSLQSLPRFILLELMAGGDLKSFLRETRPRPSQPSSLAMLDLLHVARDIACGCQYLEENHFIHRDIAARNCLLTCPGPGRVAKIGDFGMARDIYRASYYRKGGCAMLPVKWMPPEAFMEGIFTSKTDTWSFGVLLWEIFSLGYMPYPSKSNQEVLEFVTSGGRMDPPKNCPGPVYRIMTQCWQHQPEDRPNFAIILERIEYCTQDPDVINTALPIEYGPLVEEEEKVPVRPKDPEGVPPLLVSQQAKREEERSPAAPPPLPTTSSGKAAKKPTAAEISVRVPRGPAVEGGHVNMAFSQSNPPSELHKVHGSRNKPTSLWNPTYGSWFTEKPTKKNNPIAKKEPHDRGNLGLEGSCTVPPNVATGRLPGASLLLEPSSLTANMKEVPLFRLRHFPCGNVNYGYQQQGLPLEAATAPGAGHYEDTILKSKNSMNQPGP
Sequence of Hepatocyte growth factor receptor (P08581 whole entry): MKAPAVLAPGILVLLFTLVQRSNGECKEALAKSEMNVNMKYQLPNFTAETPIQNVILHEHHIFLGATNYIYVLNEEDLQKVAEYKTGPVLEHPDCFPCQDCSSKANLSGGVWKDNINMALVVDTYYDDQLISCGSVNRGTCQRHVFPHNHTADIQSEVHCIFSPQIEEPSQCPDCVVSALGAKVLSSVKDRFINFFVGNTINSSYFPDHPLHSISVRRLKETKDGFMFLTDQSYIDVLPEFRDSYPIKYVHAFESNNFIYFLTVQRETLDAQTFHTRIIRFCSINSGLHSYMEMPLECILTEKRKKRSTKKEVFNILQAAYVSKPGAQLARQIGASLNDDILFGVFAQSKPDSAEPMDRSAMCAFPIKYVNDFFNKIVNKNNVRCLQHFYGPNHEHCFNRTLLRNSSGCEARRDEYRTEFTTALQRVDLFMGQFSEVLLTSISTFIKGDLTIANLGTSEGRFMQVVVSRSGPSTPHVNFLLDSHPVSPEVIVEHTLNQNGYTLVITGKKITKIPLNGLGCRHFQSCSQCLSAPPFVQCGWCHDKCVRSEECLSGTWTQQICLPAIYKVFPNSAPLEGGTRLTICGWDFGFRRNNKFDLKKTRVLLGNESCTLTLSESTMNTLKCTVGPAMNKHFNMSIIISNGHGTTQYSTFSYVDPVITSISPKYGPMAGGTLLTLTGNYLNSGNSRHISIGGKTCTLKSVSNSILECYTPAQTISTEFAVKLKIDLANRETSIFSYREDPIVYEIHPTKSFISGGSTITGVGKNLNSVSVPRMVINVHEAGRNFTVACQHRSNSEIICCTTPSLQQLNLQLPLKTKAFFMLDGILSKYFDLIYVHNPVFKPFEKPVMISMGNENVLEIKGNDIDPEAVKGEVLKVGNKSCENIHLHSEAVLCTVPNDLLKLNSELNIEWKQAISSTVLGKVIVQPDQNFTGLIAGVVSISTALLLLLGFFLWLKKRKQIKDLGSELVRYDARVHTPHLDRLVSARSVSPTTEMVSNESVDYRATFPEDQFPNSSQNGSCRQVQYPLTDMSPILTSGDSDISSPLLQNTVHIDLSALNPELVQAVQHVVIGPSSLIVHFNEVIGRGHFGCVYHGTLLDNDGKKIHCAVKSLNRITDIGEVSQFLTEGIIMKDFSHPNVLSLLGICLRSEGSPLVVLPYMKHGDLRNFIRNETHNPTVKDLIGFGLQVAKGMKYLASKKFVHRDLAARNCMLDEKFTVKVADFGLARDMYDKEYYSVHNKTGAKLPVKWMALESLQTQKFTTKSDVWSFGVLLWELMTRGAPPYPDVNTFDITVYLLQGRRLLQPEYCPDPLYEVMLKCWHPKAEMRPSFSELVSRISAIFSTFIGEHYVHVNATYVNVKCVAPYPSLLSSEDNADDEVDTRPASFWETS

| Compound | IC50 [1] [nM] | IC50 [2] [nM] | IC50 [3] [nM] | further results |
| --- | --- | --- | --- | --- |
| COc1cc2c(Oc3ccc(NC(=O)c4cn(-c5ccc(Cl)cc5Cl)cn4)cc3F)ccnc2cc1OCCCN1CCN(C)CC1 | 4840 | 3850 | 3050 | – |
| COc1cc2c(Oc3ccc(NC(=O)c4cn(-c5ccccc5OC(F)(F)F)cn4)cc3F)ccnc2cc1OCCCN1CCCCC1 | 190 | 270 | 250 | – |
| COc1cc2c(Oc3ccc(NC(=O)c4cn(-c5ccccc5OC(F)(F)F)cn4)cc3F)ccnc2cc1OCCCN1CCN(C)CC1 | 120 | 130 | 170 | – |
| COc1cc2c(Oc3ccc(NC(=O)c4cn(-c5ccc(Cl)cc5)cn4)cc3F)ccnc2cc1OCCCN1CCCCC1 | 5910 | 6560 | 2780 | – |
| COc1cc2c(Oc3ccc(NC(=O)/C=C/S(=O)(=O)c4ccc(C)cc4)cc3F)ccnc2cc1OCCCN1CCN(C)CC1 | 2510 | 1510 | 2070 | – |
| COc1cc2c(Oc3ccc(NC(=O)/C=C/S(=O)(=O)c4ccc(C)cc4)cc3F)ccnc2cc1OCCCN1CCCCC1 | 1690 | 2310 | 4230 | – |
| COc1ccc(S(=O)(=O)/C=C/C(=O)Nc2ccc(Oc3ccnc4cc(OCCCN5CCCCC5)c(OC)cc34)c(F)c2)cc1 | 3580 | 2220 | 1650 | – |
| COc1cc2c(Oc3ccc(NC(=O)c4cn(-c5ccccc5OC)cn4)cc3F)ccnc2cc1OCCCN1CCN(C)CC1 | 220 | 70 | 80 | IC50 [4]: 690 nM; IC50 [5]: 400 nM; IC50 [6]: 1.1 nM; Ratio IC50 (A549): 2.1; IC50 [7]: 589 nM; Ratio IC50 (MKN-45): 1.4; Ratio IC50 (HT-29): 3.1; IC50 [8]: > 3330 nM; IC50 [9]: 270 nM |
| COc1cc2c(Oc3ccc(NC(=O)c4cn(-c5cc(C)ccc5C)cn4)cc3F)ccnc2cc1OCCCN1CCOCC1 | 3200 | 5480 | 1960 | – |
| COc1cc2c(Oc3ccc(NC(=O)/C=C/S(=O)(=O)c4ccccc4OC)cc3F)ccnc2cc1OCCCN1CCN(C)CC1 | 430 | 320 | 270 | – |
| COc1cc2c(Oc3ccc(NC(=O)c4cn(-c5ccccc5OC(F)(F)F)cn4)cc3F)ccnc2cc1OCCCN1CCC(C)CC1 | 150 | 760 | 690 | – |
| COc1cc2c(Oc3ccc(NC(=O)/C=C/S(=O)(=O)c4ccccc4F)cc3F)ccnc2cc1OCCCN1CCOCC1 | 420 | 210 | 600 | – |
| COc1cc2c(Oc3ccc(NC(=O)/C=C/S(=O)(=O)c4ccccc4F)cc3F)ccnc2cc1OCCCN1CCN(C)CC1 | 280 | 150 | 150 | – |
| COc1cc2c(Oc3ccc(NC(=O)c4cn(-c5cc(C)ccc5C)cn4)cc3F)ccnc2cc1OCCCN1CCN(C)CC1 | 650 | 350 | 470 | – |
| COc1cc2c(Oc3ccc(NC(=O)/C=C/S(=O)(=O)c4ccccc4F)cc3F)ccnc2cc1OCCCN1CCC(C)CC1 | 840 | 410 | 760 | – |
| COc1cc2c(Oc3ccc(NC(=O)c4cn(-c5ccccc5OC(F)(F)F)cn4)cc3F)ccnc2cc1OCCCN1CCOCC1 | 180 | 520 | 430 | – |
| COc1cc2c(Oc3ccc(NC(=O)c4cn(-c5cc(C)ccc5C)cn4)cc3F)ccnc2cc1OCCCN1CCCCC1 | 830 | 510 | 580 | – |
| COc1cc2c(Oc3ccc(NC(=O)/C=C/S(=O)(=O)c4ccccc4OC)cc3F)ccnc2cc1OCCCN1CCCCC1 | 980 | 470 | 660 | – |
| COc1cc2c(Oc3ccc(NC(=O)c4cn(-c5ccccc5OC)cn4)cc3F)ccnc2cc1OCCCN1CCCCC1 | 260 | 120 | 100 | – |
| COc1cc2c(Oc3ccc(NC(=O)c4cn(-c5cc(C)ccc5C)cn4)cc3F)ccnc2cc1OCCCN1CCC(C)CC1 | 5650 | 7420 | 2220 | – |
| COc1cc2c(Oc3ccc(NC(=O)c4cn(-c5ccc(Cl)cc5Cl)cn4)cc3F)ccnc2cc1OCCCN1CCCCC1 | 6240 | 7490 | 4300 | – |
| COc1ccc(S(=O)(=O)/C=C/C(=O)Nc2ccc(Oc3ccnc4cc(OCCCN5CCN(C)CC5)c(OC)cc34)c(F)c2)cc1 | 2770 | 1870 | 1660 | – |
| COc1cc2c(Oc3ccc(NC(=O)c4cn(-c5ccccc5OC)cn4)cc3F)ccnc2cc1OCCCN1CCOCC1 | 320 | 150 | 200 | – |
| COc1cc2c(Oc3ccc(NC(=O)/C=C/S(=O)(=O)c4ccccc4OC)cc3F)ccnc2cc1OCCCN1CCOCC1 | 1470 | 770 | 1180 | – |
| COc1cc2c(Oc3ccc(NC(=O)c4cn(-c5ccc(Cl)cc5)cn4)cc3F)ccnc2cc1OCCCN1CCN(C)CC1 | 4110 | 5200 | 1350 | – |
| COc1cc2c(Oc3ccc(NC(=O)/C=C/S(=O)(=O)c4ccccc4OC)cc3F)ccnc2cc1OCCCN1CCC(C)CC1 | 2030 | 3000 | 1960 | – |
| COc1cc2c(Oc3ccc(NC(=O)c4cn(-c5ccccc5OC)cn4)cc3F)ccnc2cc1OCCCN1CCC(C)CC1 | 600 | 400 | 300 | – |
